Each structure is given as a SMILES string.

Experiment [1] has as its system C57BL/6 mice with sepsis induced by bacterial lipopolysaccharide. As to the kind of experiment: LPS-induced sepsis: mortality over 7 days. The conditions noted are these: 30 mg/kg i.p. at 0 and 6 h after LPS; 7-day period. It counts as in vivo, mouse. How it is done:
General animal care, induction of sepsis and treatments were performed as described under Example 7. We initially included a total of 10 mice per treatment group, pooled from two independent experiments. To assess mortality after induction of sepsis, the mice were monitored at least three times a day for 7 days. […] The final group size was n=9 mice in the ABR-238901-treated group, and n=10 in the PBS-treated group. The experimental layout is outlined in FIG. 14A. Mice showing clinical signs of terminal illness that fulfilled the pre-specified termination points specified in the ethical permit awarded by the Lund University Ethics Committee were euthanized. Weight loss more than 20% is not considered a clinical sign of terminal illness, but was defined by the Ethical Committee as an experiment termination criterion.

Experiment [2] concerns Nur77 response elements NBRE and NurRE in RAW264.7 macrophages. Put plainly: Nur77 activity luciferase reporter assay in RAW264.7 macrophages stimulated with S100A9. It counts as cell-based, mouse. The following applies: S100A9 20 μg/mL, ABR-238901 100 μM, 16 hours. How it is done:
Low-passage RAW264.7 mouse macrophages (ATCC #TIB-71) were seeded at 125.000 cells/mL in DMEM medium containing 2 mM L-glutamine (Gibco), 10% Fetal Calf Serum (Gibco), and 1% penicillin/streptomycin (Invitrogen). The next day, cells were transfected with pXP1-NurRE-fluc or pGL2-4xNBRE-fluc firefly luciferase Nur77 reporter constructs using Lipofectamine LTX with PLUS reagent (Invitrogen) according to manufacturer's instructions. pRluc-N3, which constitutively expresses Renilla luciferase from the CMV promoter, was co-transfected as an internal control to verify transfection efficiency. Extracellular S100A9 (20 μg/mL) was incubated in the presence of 10 μM ZnCl2 (Sigma) for 15 minutes with or without 100 μM of ABR-238901, and added to the cells 4 hours after transfection. After 16 hours of stimulation, the cells were washed and firefly and Renilla luciferase activities were determined using the Dual-Luciferase Reporter Assay System and a GloMax luminescent plate reader (both Promega).
(In general: Reporter assays use an easily measured gene product as a stand-in for the process of interest.)

The subject of experiment [3] is α-MHC-mCherry mice with MI. As to the kind of experiment: Efferocytosis of mCherry+ cardiomyocytes by heart macrophages, 7 days post-MI. Format: in vivo, mouse. The conditions noted are these: treatment for 7 days post-MI. The source says: All mouse studies were approved by the Animal Research Ethics Committee of Lund University. C57BL/6NRJ mice were purchased from Janvier Labs, C57BL/6-Tg(Nr4a1-EGFP/cre)820Khog/J (Nur77-EGFP) and B6;D2-Tg(Myh6*-mCherry)2Mik/J (α-MHC-mCherry) were purchased from the Jackson Laboratory. Nur77-EGFP mice express the fluorescent EGFP protein under the Nur77 promoter. α-MHC-mCherry mice express the red fluorescent Cherry protein under the mouse alpha myosin heavy-chain promoter in cardiomyocytes. We used 8-12 weeks old female mice in all experiments. MI was induced by left coronary artery ligation using a minimal thoracotomy model. Mice were initially anesthetized with 4% isoflurane and the surgical procedure was performed under 1.7% isoflurane. Following heart exposure outside of the thorax through a small thoracic incision, the left coronary artery was permanently ligated using silk 6.0 suture, the heart repositioned, and the thorax was closed with 6.0 prolene monofilament suture.
In an attempt to explain these intriguing results, we assessed the effects of the extended treatment on the presence of myeloid cells in blood, spleen, bone marrow and myocardium, with particular emphasis on cellular populations involved in myocardial repair. The cellular infiltration was analysed by flow cytometry on day 7, at the peak of the reparatory post-MI period. […]

The subject of experiment [4] is C57BL/6 mice with MI induced by permanent coronary artery ligation. Put plainly: Quantitative PCR of whole heart tissue 3 days post-MI. It counts as in vivo, mouse. How it is done:
Total RNA was isolated from whole heart tissue using the TRI Reagent™ Solution (Invitrogen) according to the manufacturer's instructions. cDNA was generated from 2 μg of total RNA per sample using the High Capacity RNA to cDNA™ Kit (Applied Biosystems™). Quantitative real-time TaqMan PCR was performed using the following TaqMan primers (Applied Biosystems): Il-1b (Mm00434228_m1), Arg-1 (Mm00475988_m1), Ym-1 (Mm00657889_mH), Cc/5 (Mm01302427_m1), Tnf-α (Mm00443258_m1), Il-12 (Mm01288989_m1), IFN-γ (Mm01168134_m1), Il-10 (Mm00439614_m1), TGF-β (Mm01178820_m1), Il-4 (Mm00445259_m1) and housekeeping gene Hypoxantine-guanine phosphoribosyltransferase (HPRT) (Mm01324427_m1). Quantitative PCR was run on a ViiA7 Real-Time PCR System (Applied Biosystems) and data were quantified with the 2^−ΔCt method.
In order to assess the effects of the treatment on the post-MI cardiac environment, we performed qPCR analysis of mRNA encoding for proteins involved in myocardial inflammation and repair. The analysis was done in whole heart tissue collected at 3 days post-MI from mice receiving ABR-238901 or PBS (n=5 mice per group). […] The expression of IL-1β, TNFα, IL-10 and TGFβ was not affected at this stage (FIG. 3C, D, H). […] As neutrophils are the main producers of S100A8/A9, this effect is in line with the blunted local and systemic neutrophil response to MI observed in ABR-238901-treated mice (FIG. 2A, H).

`COc1ncc(S(=O)(=O)Nc2cncc(Cl)c2O)cc1Br` [ABR-238901, 5-bromo-N-(5-chloro-4-hydroxypyridin-3-yl)-6-methoxypyridine-3-sulfonamide]: in experiment [1], the Animal survival turned out to be 100%. In experiment [2], the “S100A9-induced increase of Nur77 activity (NBRE and NurRE luciferase reporters)” value is recorded as “inhibited”. For the same compound, in experiment [3], the “Reduction of the number of macrophages having phagocytosed mCherry+ cardiomyocytes” value was “approximately 50%”; the “mCherry mean fluorescent intensity (MFI) in MerTKhi and MerTKlo macrophages” value is given as “did not affect”. Moreover, in experiment [4], the “Gene expression of the chemokine CCL5/RANTES in heart” value is given as “inhibited”, the “IL-1β expression in heart” value was “not affected”, the “IL-10 expression in heart” value is given as “not affected” and the “TGFβ expression in heart” value was “not affected”. Further, the “TNFα expression in heart” value in experiment [4] was “not affected”. In experiment [4] (vs MI controls), the “Arg-1 mRNA expression in heart” value is recorded as “enhanced”, the “IFN-γ mRNA expression in heart” value was “inhibited”, the “IL-4 mRNA expression in heart” value is “enhanced” and the “IL-12 mRNA expression in heart” value was “inhibited”. In experiment [4] (vs MI controls), the “Ym-1 mRNA expression in heart” value is recorded as “enhanced”.

The values above are taken from US20220378763A1, “COMPOUND FOR TREATMENT OF ACUTE INFLAMMATION IN THE MYOCARDIUM” (CALPROTECT AB, priority 2019, published 2022).
